pIC50: −log10 of the molar value. Calls of active or inactive are those of the source. The rule behind the calls is not given here. *1 amine or outer side, *2 acyl side, *3 side chain or, on linkers, in order; H or OH if unused. Where a SMILES comes first, the peptide text is derived from it. [ ]: non-standard residue; d: D form. The star is where a group is joined. Hydrocinnamoyl(4-OSO3H) = O=C(CCc1ccc(OS(=O)(=O)O)cc1)*; X2 = O=C([C@@H]1CC(OS(=O)(=O)O)CN1[*:1])[*:2]; X5 = CCC[C@H]1CCN([*:1])[C@@H]1C(=O)[*:2]; X4 = O=C(c1ccc2cc(OS(=O)(=O)O)ccc2c1)*; X1 = CCCC1CCN([*:1])[C@@H]1C(=O)[*:2]; X6 = O=C(/C=C/c1ccc(OS(=O)(=O)O)cc1)*; X3 = O=C(/C(=C/c1ccccc1)N[*:1])[*:2]; NMeF = CN[C@@H](Cc1ccccc1)C(=O)O; NMeD = CN[C@@H](CC(=O)O)C(=O)O; NMeL = CN[C@@H](CC(C)C)C(=O)O; Nle = CCCC[C@H](N)C(=O)O; Ava = NCCCCC(=O)O
Tests used:
[1] = tested on: Cholecystokinin receptor type A (Cavia porcellus); experiment: Evaluated in vitro for maximal stimulatory activity for PI hydrolysis relative to CCK-8 in guinea pig tissue
[2] = biological target: Cholecystokinin receptor (Rattus norvegicus) (UniProt P30551+P30553); experiment: Evaluated for effective dose required for suppression of food intake in rat (0-60 min); type: functional
[3] = biological target: T1, Cholecystokinin receptor type A (Cavia porcellus) (UniProt Q63931); experiment: Ratio of binding affinities for CCK-A receptor of guinea pig pancreas (IC50(nM)) to CCK-B receptor of guinea pig cortex (IC50(nM)); type: tissue-based
T1 sequence (whole entry): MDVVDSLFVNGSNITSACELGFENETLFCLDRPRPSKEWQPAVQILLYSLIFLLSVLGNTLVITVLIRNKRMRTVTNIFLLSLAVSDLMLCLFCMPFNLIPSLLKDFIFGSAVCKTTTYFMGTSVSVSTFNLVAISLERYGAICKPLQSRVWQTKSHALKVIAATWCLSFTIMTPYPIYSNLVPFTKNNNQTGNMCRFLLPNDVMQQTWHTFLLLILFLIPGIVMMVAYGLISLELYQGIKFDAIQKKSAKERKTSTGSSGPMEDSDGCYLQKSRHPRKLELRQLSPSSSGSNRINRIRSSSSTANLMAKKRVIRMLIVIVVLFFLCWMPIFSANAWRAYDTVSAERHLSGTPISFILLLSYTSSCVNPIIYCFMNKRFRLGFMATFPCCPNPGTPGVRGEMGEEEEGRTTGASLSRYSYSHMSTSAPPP

[4] = biological target: T2, Cholecystokinin receptor type A (Cavia porcellus, UniProt Q63931); experiment: Evaluated in vitro for its binding affinity towards cholecystokinin type A receptor of guinea pig pancreas
T2 sequence (Q63931 whole entry): T1 sequence (whole entry)

[5] = biological target: Cholecystokinin receptor type A (Cavia porcellus); experiment: Evaluated in vitro for maximal stimulatory activity for amylase release relative to CCK-8 in guinea pig tissue
Rattus norvegicus [6] = experiment: Compound was evaluated for % suppression (at 30 nmol/kg) of food intake in rat (360-420 min); not significant; type: functional, organism-based
[7] = tested on: Cholecystokinin receptor type A (Cavia porcellus); experiment: Ratio for CCK-A receptor of guinea pig pancreas (IC50(nM)) to CCK-B receptor of guinea pig cortex (IC50(nM))
Cavia porcellus [8] = species: Cavia porcellus; experiment: In vitro maximal stimulatory activity for amylase release relative to CCK-8 in guinea pig tissue at 10 uM; type: functional
Cavia porcellus [9] = species: Cavia porcellus; experiment: In vitro maximal stimulatory activity for amylase release relative to CCK-8 in guinea pig tissue at 20 nM; type: functional
Cavia porcellus [10] = species: Cavia porcellus; experiment: In vitro maximal stimulatory activity for amylase release relative to CCK-8 in guinea pig tissue at 5 nM; type: functional
Cavia porcellus [11] = species: Cavia porcellus; experiment: In vitro maximal stimulatory activity for amylase release relative to CCK-8 in guinea pig tissue at 3 uM; type: functional
Rattus norvegicus [12] = experiment: Compound was evaluated for % suppression (at 30 nmol/kg) of food intake in rat (360-420 min); type: functional
Cavia porcellus [13] = species: Cavia porcellus; experiment: (§1) Compound (10e-4 M) was evaluated in vitro for maximal stimulatory activity for PI hydrolysis relative to CCK-8 in guinea pig tissue; type: functional
[14] = as §1; type: functional

Q: Which Max response [1] does the source give for `CCCC[C@H](NC(=O)CCc1ccc(OS(=O)(=O)O)cc1)C(=O)NCC(=O)N[C@@H](Cc1c[nH]c2ccccc12)C(=O)N[C@@H](CCCC)C(=O)N[C@@H](CC(=O)O)C(=O)N[C@@H](Cc1ccccc1)C(N)=O` here?
A: 100%

Q: And the ED50 [2]?
A: 0.00398 µmol/kg

Q: What about the Ratio [3] of the same molecule?
A: 1.53

Q: What about the pIC50 [4] of the same molecule?
A: 9.11

Q: And the EC50 [5]?
A: 0.99 nM

Q: And the Supression (Rattus norvegicus [6])?
A: inactive

Q: Which Max response [1] does the source give for `CCCC[C@H](NC(=O)[C@H](Cc1c[nH]c2ccccc12)NC(=O)CNC(=O)[C@@H](CCCC)NC(=O)CCc1ccc(OS(=O)(=O)O)cc1)C(=O)N[C@@H](CC(=O)O)C(=O)N[C@@H](Cc1ccccc1)C(N)=O` here?
A: 52%

Q: What about the Ratio [7] of the same molecule?
A: 18.5

Q: What about the pIC50 [4] of the same molecule?
A: 6.82

Q: With `CCCC[C@H](NC(=O)[C@H](Cc1c[nH]c2ccccc12)NC(=O)CN1CC[C@H](NC(=O)CCc2ccc(OS(=O)(=O)O)cc2)C1=O)C(=O)N[C@@H](CC(=O)O)C(=O)N[C@@H](Cc1ccccc1)C(N)=O` as the molecule, how does the Max response [1] read?
A: 86%

Q: What about the Ratio [7] of the same molecule?
A: 9

Q: And the pIC50 [4]?
A: 6.89

Q: What about the EC50 [5] of the same molecule?
A: 71 nM

Q: With `CCCC[C@H](NC(=O)c1ccc2cc(OS(=O)(=O)O)ccc2c1)C(=O)NCC(=O)N[C@@H](Cc1c[nH]c2ccccc12)C(=O)N[C@@H](CCCC)C(=O)N[C@@H](CC(=O)O)C(=O)N[C@@H](Cc1ccccc1)C(N)=O` (X4-[Nle]GW[Nle]DF-NH2) as the molecule, how does the Max response [1] read?
A: 16%

Q: What about the Stimulation (Cavia porcellus [8]) of the same molecule?
A: 44%

Q: And the Ratio [7]?
A: 0.04

Q: And the pIC50 [4]?
A: 6.05

Q: With `CCCC[C@H](NC(=O)/C=C/c1ccc(OS(=O)(=O)O)cc1)C(=O)NCC(=O)N[C@@H](Cc1c[nH]c2ccccc12)C(=O)N[C@@H](CCCC)C(=O)N[C@@H](CC(=O)O)C(=O)N[C@@H](Cc1ccccc1)C(N)=O` (X6-[Nle]GW[Nle]DF-NH2) as the molecule, how does the pIC50 [4] read?
A: 7.64

Q: And the Stimulation (Cavia porcellus [9])?
A: 105%

Q: What does the source list for `CC(C)C[C@H](NC(=O)[C@H](Cc1c[nH]c2ccccc12)NC(=O)CCCCNC(=O)CCc1ccc(OS(=O)(=O)O)cc1)C(=O)N[C@@H](CC(=O)O)C(=O)N[C@@H](Cc1ccccc1)C(N)=O` ({Hydrocinnamoyl(4-OSO3H)-Ava}-WLDF-NH2)?
A: Max response [1]: 64%; Ratio [7]: 143; pIC50 [4]: 6.82; EC50 [5]: 140 nM

Q: What does the source list for `CCCC[C@H](NC(=O)[C@H](Cc1c[nH]c2ccccc12)NC(=O)CNC(=O)[C@H](CC(C)C)NC(=O)CCc1ccc(OS(=O)(=O)O)cc1)C(=O)N[C@@H](CC(=O)O)C(=O)N[C@@H](Cc1ccccc1)C(N)=O` ({Hydrocinnamoyl(4-OSO3H)}-LGW[Nle]DF-NH2)?
A: Max response [1]: 120%; Ratio [7]: 1.1; pIC50 [4]: 9.17; EC50 [5]: 0.64 nM

Q: With `CCC[C@H]1CCN(C(=O)[C@H](Cc2c[nH]c3ccccc23)NC(=O)CNC(=O)[C@@H]2CCCN2C(=O)CCc2ccc(OS(=O)(=O)O)cc2)[C@@H]1C(=O)N[C@@H](CC(=O)O)C(=O)N(C)[C@@H](Cc1ccccc1)C(N)=O` ({Hydrocinnamoyl(4-OSO3H)}-PGW[X5]D[NMeF]-NH2) [listing 1 of 2 here] as the molecule, how does the pIC50 [4] read?
A: 8.14

Q: Which Stimulation (Cavia porcellus [10]) does the source give for `CCC[C@H]1CCN(C(=O)[C@H](Cc2c[nH]c3ccccc23)NC(=O)CNC(=O)[C@@H]2CCCN2C(=O)CCc2ccc(OS(=O)(=O)O)cc2)[C@@H]1C(=O)N[C@@H](CC(=O)O)C(=O)N(C)[C@@H](Cc1ccccc1)C(N)=O` ({Hydrocinnamoyl(4-OSO3H)}-PGW[X5]D[NMeF]-NH2) [listing 2 of 2 here] here?
A: 83%

Q: With `CCCC[C@H](NC(=O)CCc1ccc(OS(=O)(=O)O)cc1)C(=O)NCC(=O)N[C@@H](Cc1c[nH]c2ccccc12)C(=O)N1CCC[C@H]1C(=O)N[C@@H](CC(=O)O)C(=O)N(C)[C@@H](Cc1ccccc1)C(N)=O` ({Hydrocinnamoyl(4-OSO3H)}-[Nle]GWPD[NMeF]-NH2) as the molecule, how does the pIC50 [4] read?
A: 7.09

Q: And the Stimulation (Cavia porcellus [11])?
A: 98%

Q: What does the source list for `CCCC[C@H](NC(=O)CCc1ccc(OS(=O)(=O)O)cc1)C(=O)NCC(=O)N[C@@H](Cc1c[nH]c2ccccc12)C(=O)N(C)[C@@H](CC(C)C)C(=O)N[C@@H](CC(=O)O)C(=O)N[C@@H](Cc1ccccc1)C(N)=O` ({Hydrocinnamoyl(4-OSO3H)}-[Nle]GW[NMeL]DF-NH2)?
A: Max response [1]: 80%; Ratio [7]: 625; pIC50 [4]: 6.85; EC50 [5]: 15 nM

Q: For `CCCC[C@H](NC(=O)CCc1ccc(OS(=O)(=O)O)cc1)C(=O)NCC(=O)N[C@@H](Cc1c[nH]c2ccccc12)C(=O)N[C@@H](CCCC)C(=O)N[C@@H](CC(=O)O)C(=O)N(C)[C@@H](Cc1ccccc1)C(N)=O` ({Hydrocinnamoyl(4-OSO3H)}-[Nle]GW[Nle]D[NMeF]-NH2), which ED50 [2] is on record?
A: 0.00245 µmol/kg

Q: What about the Supression (Rattus norvegicus [12]) of the same molecule?
A: 30%

Q: And the Ratio [7]?
A: 0.1

Q: What about the Max response (Cavia porcellus [13]) of the same molecule?
A: 94%

Q: Which Max response [14] does the source give for `CCCC[C@H](NC(=O)CCc1ccc(OS(=O)(=O)O)cc1)C(=O)NCC(=O)N[C@@H](Cc1c[nH]c2ccccc12)C(=O)N[C@@H](CCCC)C(=O)N[C@@H](CC(=O)O)C(=O)N/C(=C\c1ccccc1)C(N)=O` ({Hydrocinnamoyl(4-OSO3H)}-[Nle]GW[Nle]D[X3]-NH2) here?
A: 69%

Q: And the Ratio [7]?
A: 0.62

Q: For `CCCC[C@H](NC(=O)CCc1ccc(OS(=O)(=O)O)cc1)C(=O)NCC(=O)N[C@@H](Cc1c[nH]c2ccccc12)C(=O)N[C@@H](CCCC)C(=O)N(C)[C@@H](CC(=O)O)C(=O)N[C@@H](Cc1ccccc1)C(N)=O` ({Hydrocinnamoyl(4-OSO3H)}-[Nle]GW[Nle][NMeD]F-NH2), which Supression (Rattus norvegicus [12]) is on record?
A: 29%

Q: What about the Max response (Cavia porcellus [13]) of the same molecule?
A: 100%

Q: What does the source list for `CCCC[C@H](NC(=O)CCc1ccc(OS(=O)(=O)O)cc1)C(=O)NCC(=O)N[C@@H](Cc1c[nH]c2ccccc12)C(=O)N[C@@H](CCCC)C(=O)N1CC(OS(=O)(=O)O)C[C@H]1C(=O)N[C@@H](Cc1ccccc1)C(N)=O` (stereo partly specified) ({Hydrocinnamoyl(4-OSO3H)}-[Nle]GW[Nle][X2]F-NH2)?
A: ED50 [2]: > 1 µmol/kg; Ratio [7]: 0.03; Max response (Cavia porcellus [13]): 82%; Supression (Rattus norvegicus [6]): inactive

Q: Which results are given for `CCCC[C@H](NC(=O)CCc1ccc(OS(=O)(=O)O)cc1)C(=O)NCC(=O)N[C@@H](Cc1c[nH]c2ccccc12)C(=O)N1CCC(CCC)[C@H]1C(=O)N[C@@H](CC(=O)O)C(=O)N(C)[C@@H](Cc1ccccc1)C(N)=O` (stereo partly specified) ({Hydrocinnamoyl(4-OSO3H)}-[Nle]GW[X1]D[NMeF]-NH2)?
A: ED50 [2]: 0.00877 µmol/kg; Ratio [7]: 14.3; Max response (Cavia porcellus [13]): 83%; Supression (Rattus norvegicus [6]): inactive

— ChEMBL document CHEMBL1125509, “Synthesis and biological activity of CCK heptapeptide analogues. Effects of conformational constraints and standard modifications on receptor subtype selectivity, functional activity in vitro, and appetite suppression in vivo” (J Med Chem, 1992)
